PubChem BioAssay AID1259411 (Chemical Carcinogenesis Research Information System (CCRIS), 2018)
Calls of active or inactive are those of the source. No rule for the calls is given here.

System: rodent carcinogenicity bioassays, tumor incidence
Assay: CCRIS carcinogenicity studies
From the text: The CCRIS database contains chemical records with carcinogenicity, mutagenicity, tumor promotion, and tumor inhibition test results. It was developed by the National Cancer Institute (NCI). Data are derived from studies cited in primary journals, current awareness tools, NCI reports, and other sources. Test results have been reviewed by experts in carcinogenesis and mutagenesis.
CCRIS provides historical information from the years 1985 - 2011. It is no longer updated.
This is an archive assay for CCRIS carcinogenicity studies.

With `CN(C)c1ccc(Cc2ccc(N(C)C)cc2)cc1` the carcinogen call (Species: MOUSE, Strain/Sex: B6C3F1/FEMALE, Route: ORAL, Dose: 0, 1250, 2500 PPM IN DIET FOR 78 WK (STUDY DURATION: 91 WK), Dose: 0, 1250, 2500 PPM IN DIET FOR 78 WK (STUDY DURATION: 91 WK), Tumor Site: Type of Lesion: LIVER: HEPATOCELLULAR ADENOMA OR CARCINOMA) was “active; positive”, the carcinogen call (Species: MOUSE, Strain/Sex: B6C3F1/MALE, Route: ORAL, Dose: 0, 1250, 2500 PPM IN DIET FOR 78 WK (STUDY DURATION: 91 WK), Dose: 0, 1250, 2500 PPM IN DIET FOR 78 WK (STUDY DURATION: 91 WK), Tumor Site: Type of Lesion: LIVER: HEPATOCELLULAR ADENOMA OR CARCINOMA) was “equivocal” and the carcinogen call (Species: RAT, Strain/Sex: F344/FEMALE, Route: ORAL, Dose: 0, 0.0375, 0.075% IN DIET FOR 59 WK (STUDY DURATION: 2 YR), Dose: 0, 0.0375, 0.075% IN DIET FOR 59 WK (STUDY DURATION: 2 YR), Tumor Site: Type of Lesion: THYROID GLAND: FOLLICULAR CARCINOMA) was “active; positive”. For the same compound, the carcinogen call (Species: RAT, Strain/Sex: F344/FEMALE, Route: ORAL, Dose: 0, 375, 750 PPM IN DIET FOR 59 WK (STUDY DURATION: 104 WK), Dose: 0, 375, 750 PPM IN DIET FOR 59 WK (STUDY DURATION: 104 WK), Tumor Site: Type of Lesion: THYROID GLAND: FOLLICULAR CELL ADENOMA OR CARCINOMA) was “active; positive”, the carcinogen call (Species: RAT, Strain/Sex: F344/MALE, Route: ORAL, Dose: 0, 0.0375, 0.075% IN DIET FOR 59 WK (STUDY DURATION: 2 YR), Dose: 0, 0.0375, 0.075% IN DIET FOR 59 WK (STUDY DURATION: 2 YR), Tumor Site: Type of Lesion: THYROID GLAND: FOLLICULAR CARCINOMA) was “active; positive” and the carcinogen call (Species: RAT, Strain/Sex: F344/MALE, Route: ORAL, Dose: 0, 375, 750 PPM IN DIET FOR 59 WK (STUDY DURATION: 104 WK), Dose: 0, 375, 750 PPM IN DIET FOR 59 WK (STUDY DURATION: 104 WK), Tumor Site: Type of Lesion: THYROID GLAND: FOLLICULAR CELL ADENOMA OR CARCINOMA) was “active; positive”.
With `Cc1cccc2c(C)c3c(ccc4ccccc43)c(C)c12` the carcinogen call (Species: MOUSE, Strain/Sex: C57BL/MALE,FEMALE, Route: DERMAL, Tumor Site: Type of Lesion: INTEGUMENTARY SYSTEM (SKIN): PAPILLOMA, EPITHELIOMA, SARCOMA) was “active; positive”, the carcinogen call (Species: MOUSE, Strain/Sex: DBA/MALE,FEMALE, Route: DERMAL, Tumor Site: Type of Lesion: INTEGUMENTARY SYSTEM (SKIN): PAPILLOMA, EPITHELIOMA, SARCOMA) was “active; positive” and the carcinogen call (Species: MOUSE, Strain/Sex: DBF1/MALE,FEMALE, Route: DERMAL, Tumor Site: Type of Lesion: INTEGUMENTARY SYSTEM (SKIN): PAPILLOMA, EPITHELIOMA, SARCOMA) was “active; positive”. For the same compound, the carcinogen call (Species: RAT, Strain/Sex: LONG-EVANS/FEMALE, Route: INTRAVENOUS, Dose: 35 MG/KG, 0.5% IN DMSO DILUTED WITH COTTONSEED OIL-WATER EMULSION, 1/2 WK OR 1/10 D FOR 3-5 DOSES, Tumor Site: Type of Lesion: HEMATOPOIETIC SYSTEM (LEUKEMIA)) was “active; positive”, the carcinogen call (Species: RAT, Strain/Sex: LONG-EVANS/MALE, Route: INTRAMUSCULAR, Dose: 2.5 MG IN 0.5 ML SESAME OIL ONCE, Tumor Site: Type of Lesion: INJECTION SITE: SARCOMA) was “active; positive” and the carcinogen call (Species: RAT, Strain/Sex: LONG-EVANS/MALE, Route: INTRAVENOUS, Dose: 35 MG/KG, 0.5% IN DMSO DILUTED WITH COTTONSEED OIL-WATER EMULSION, 1/2 WK FOR 4 DOSES, Tumor Site: Type of Lesion: HEMATOPOIETIC SYSTEM (LEUKEMIA)) was “active; positive”.
In the case of `FC(F)=C(F)F`, the carcinogen call (Species: MOUSE, Strain/Sex: B6C3F1/FEMALE, Route: INHALATION, Dose: 0, 312, 625, 1250 PPM 6 HR/D 5 D/WK FOR 95-96 WK (STUDY DURATION: 96 WK), Dose: 0, 312, 625, 1250 PPM 6 HR/D 5 D/WK FOR 95-96 WK (STUDY DURATION: 96 WK), Tumor Site: Type of Lesion: LIVER: HEMANGIOMA, HEMANGIOSARCOMA, HEPATOCELLULAR CARCINOMA, HEMATOPOIETIC SYSTEM: HISTIOCYTIC SARCOMA) is reported as “active; positive”, the carcinogen call (Species: MOUSE, Strain/Sex: B6C3F1/MALE, Route: INHALATION, Dose: 0, 312, 625, 1250 PPM 6 HR/D 5 D/WK FOR 95-96 WK (STUDY DURATION: 96 WK), Dose: 0, 312, 625, 1250 PPM 6 HR/D 5 D/WK FOR 95-96 WK (STUDY DURATION: 96 WK), Tumor Site: Type of Lesion: LIVER: HEMANGIOMA, HEMANGIOSARCOMA, HEPATOCELLULAR CARCINOMA, HEMATOPOIETIC SYSTEM: HISTIOCYTIC SARCOMA) is reported as “active; positive” and the carcinogen call (Species: RAT, Strain/Sex: F344/FEMALE, Route: INHALATION, Dose: 0, 312, 625, 1250 PPM 6 HR/D 5 D/WK FOR 104 WK (STUDY DURATION: 106 WK), Dose: 0, 312, 625, 1250 PPM 6 HR/D 5 D/WK FOR 104 WK (STUDY DURATION: 106 WK), Tumor Site: Type of Lesion: KIDNEY(RENAL TUBULE): ADENOMA, ADENOMA OR CARCINOMA, LIVER: HEMANGIOSARCOMA, HEPATOCELLULAR ADENOMA, HEPATOCELLULAR CARC) is reported as “active; positive”. The carcinogen call (Species: RAT, Strain/Sex: F344/MALE, Route: INHALATION, Dose: 0, 156, 312, 625 PPM 6 HR/D 5 D/WK FOR 104 WK (STUDY DURATION: 106 WK), Dose: 0, 156, 312, 625 PPM 6 HR/D 5 D/WK FOR 104 WK (STUDY DURATION: 106 WK), Tumor Site: Type of Lesion: KIDNEY(RENAL TUBULE): ADENOMA, LIVER: HEPATOCELLULAR CARCINOMA, HEPATOCELLULAR ADENOMA OR CARCINOMA) was “active; positive”.
`CC(=O)O[C@]1(C(C)=O)CC[C@H]2[C@@H]3C[C@H](C)C4=CC(=O)CC[C@]4(C)[C@H]3CC[C@@]21C` was tested, and the carcinogen call (Species: DOG, Route: INTRAMUSCULAR, Tumor Site: Type of Lesion: MAMMARY GLAND) was “active; positive” and the carcinogen call (Species: MONKEY, Strain/Sex: CYNOMOLGUS/FEMALE, Route: ORAL, Dose: 0, 2.5 MG/WOMAN/D HUMAN DOSE EQUIVALENT IN DIET FOR 36 MONTHS BEGINNING 3 MONTHS POST BILATERAL OVARIECTOMY (STUDY DURAT) was “inactive; negative”.
With `O=C1c2cccc(O)c2C(=O)c2c(O)cccc21` the carcinogen call (Species: MOUSE, Strain/Sex: C3H/HEN/MALE, Route: ORAL, Dose: 0, 0.2% IN DIET FOR DURATION OF STUDY (STUDY DURATION: 540 D), Tumor Site: Type of Lesion: LIVER: HEPATOCELLULAR CARCINOMA) was “active; positive” and the carcinogen call (Species: RAT, Strain/Sex: ACI/MALE, Route: ORAL, Dose: 0, 1% IN DIET FOR DURATION OF STUDY (STUDY DURATION: 16 MO), Tumor Site: Type of Lesion: INTESTINE: ADENOMA OR CARCINOMA) was “active; positive”.
`ClC[C@@H]1O[C@@H]1Cl` was tested, and the carcinogen call (Species: MOUSE, Strain/Sex: ICR/FEMALE, Route: DERMAL, Dose: 10 MG IN 0.1 ML ACETONE 3/WK FOR LIFE, Tumor Site: Type of Lesion: INTEGUMENTARY SYSTEM (SKIN): PAPILLOMA, SQUAMOUS CELL CARCINOMA) was “active; positive” and the carcinogen call (Species: MOUSE, Strain/Sex: ICR/FEMALE, Route: SUBCUTANEOUS, Dose: 500 UG IN 0.05 ML TRICAPRYLIN 1/WK FOR LIFE, Tumor Site: Type of Lesion: INJECTION SITE: FIBROSARCOMA) was “active; positive”.
